Measured values as given in ChEMBL document CHEMBL1150824, “New xenicane diterpenoids from the gorgonian Acalycigorgia inermis” (2001).
Converted amounts (≈) assume the structure as drawn. The source made the active and inactive calls. The rule behind the calls is not given here.

Key:
[1] = Inhibition of FPTase up to 20 ug/mL
HUVEC [2] = test: Antiangiogenic activity in HUVEC assessed as inhibition of bFGF-induced tube formation up to 20 ug/mL; format: functional, cell-based; conditions: Homo sapiens
HUVEC [3] = test: Antiangiogenic activity in HUVEC assessed as inhibition of bFGF-induced tube formation at 10 ug/mL; format: functional, cell-based; conditions: Homo sapiens
[4] = Inhibition of FPTase at 10 ug/mL
K562 = test: Cytotoxicity against human K562 cells; format: functional; conditions: read-out: LC50 (the source's name)

Compound	Activity [1]	Activity (HUVEC [2])	Activity (HUVEC [3])	Activity [4]	inhibition [4] [%]	CC50 (K562) [µg/mL]
C=C1CC[C@@H]2O[C@@]2(C)CC[C@@H]2[C@H](CCC=C(C)C)C(=O)OC[C@@H]12	inactive	inactive	inactive	inactive		
C=C=CCC(OC(C)=O)C1=CO[C@H](OC(C)=O)[C@H]2C(=C)CC[C@@H]3O[C@@]3(C)CC[C@H]12 (stereo partly specified)			Active		82	
C=C1CC/C=C(\C)CC[C@@H]2/C(=C\C=C\C(C)(C)O)C(=O)OC[C@@H]12 [9-DEOXYXENIOLIDE A]	inactive	inactive	inactive	inactive		0.04 (≈ 0.126 µM)
C=C1CC[C@@H]2O[C@@]2(C)CC[C@@H]2[C@H](CC/C=C(\C)C(=O)OC)C(=O)OC[C@@H]12 [ACALYCIXENIOLIDE H]	inactive	inactive	inactive	inactive		3.9 (≈ 10.8 µM)
C=C1CC/C=C(\C)CC[C@@H]2[C@H](CC/C=C(\C)CO)C(=O)OC[C@@H]12 [ACALYCIXENIOLIDE I]	inactive	inactive	inactive	inactive		1.2 (≈ 3.77 µM)
C=C1CC/C=C(\C)CC[C@@H]2[C@H](C/C=C/C(C)(C)O)C(=O)OC[C@@H]12 [ACALYCIXENIOLIDE J]	inactive	inactive	inactive	inactive		2 (≈ 6.28 µM)
C=C1CC/C=C(\C)CC[C@@H]2[C@H](CC/C=C\CO)C(=O)OC[C@@H]12 [ACALYCIXENIOLIDE K]	inactive	inactive	inactive	inactive		1.8 (≈ 5.91 µM)
C=C1CC/C=C(\C)CC[C@@H]2[C@H](CC/C=C/CO)C(=O)OC[C@@H]12 [ACALYCIXENIOLIDE L]	inactive	inactive	inactive	inactive		1.5 (≈ 4.93 µM)
